Measurements: ChEMBL document CHEMBL4602645, “Design, synthesis and evaluation of diosgenin carbamate derivatives as multitarget anti-Alzheimer's disease agents” (2020)
Active and inactive are the calls of the source. The calls are words filed in the database; no cut-off is given here.

Experiments:
[1] = system: SH-SY5Y; experiment: Neuroprotective activity against H2O2-induced cytotoxicity in human SH-SY5Y cells assessed as cell viability at 1 mM pretreated for 2 hrs followed by H2O2 challenge and measured after MTT assay relative to control; assay type: functional; settings: read-out: Activity
[2] = system: SH-SY5Y; experiment: Neuroprotective activity against H2O2-induced cytotoxicity in human SH-SY5Y cells assessed as cell viability at 10 uM pretreated for 2 hrs followed by H2O2 challenge and measured after 24 hrs by MTT assay relative to control; assay type: functional; settings: read-out: Activity
[3] = system: RAW264.7; experiment: Antiinflammatory activity in mouse RAW264.7 cells assessed as inhibition of LPS-induced nitric oxide production at 10 uM preincubated for 2 hrs followed by LPS stimulation and measured after 24 hrs by Griess assay relative to control; assay type: functional
[4] = system: Astrocyte; experiment: Neuroprotective activity against amyloid-beta42-induced cell death in astrocytes isolated from cortex of Sprague-Dawley rat assessed as decrease in cell viability at 5 to 100 uM pretreated for 2 hrs followed by amyloid-beta42 stimulation measured after 24 hrs by MTT assay; assay type: functional, cell-based
[5] = system: RAW264.7; experiment: Antiinflammatory activity in mouse RAW264.7 cells assessed as decrease in LPS-induced IL-1beta expression by Western blot analysis; assay type: functional, cell-based
[6] = system: RAW264.7; experiment: Antiinflammatory activity in mouse RAW264.7 cells assessed as decrease in LPS-induced IL-6 expression by Western blot analysis; assay type: functional, cell-based
[7] = system: RAW264.7; experiment: Antiinflammatory activity in mouse RAW264.7 cells assessed as decrease in LPS-induced TNFalpha expression by Western blot analysis; assay type: functional, cell-based
[8] = system: SH-SY5Y; experiment: Neuroprotective activity against H2O2-induced toxicity in human SH-SY5Y cells assessed as decrease in cell viability at 0.1 to 100 uM pretreated for 2 hrs followed by H2O2 challenge and measured after 12 hrs by MTT assay; assay type: functional, cell-based
[9] = system: SH-SY5Y; experiment: Neuroprotective activity in human SH-SY5Y cells assessed as inhibition of H2O2-induced shortened nerve filaments at 1 to 50 uM pretreated for 2 hrs followed by H2O2 challenge and measured after 12 hrs by fluorescence microscopy analysis; assay type: functional, cell-based
[10] = system: SH-SY5Y; experiment: Neuroprotective activity in human SH-SY5Y cells assessed as inhibition of H2O2-induced decreased nerve filaments at 1 to 50 uM pretreated for 2 hrs followed by H2O2 challenge and measured after 12 hrs by fluorescence microscopy analysis; assay type: functional, cell-based
[11] = system: SH-SY5Y; experiment: Effect on mitochondrial membrane potential in human SH-SY5Y cells assessed as […] in H2O2-incuded mitochondrial membrane potential loss by measuring fluorescence shift at 5 to 50 uM pretreated for 2 hrs followed by H2O2 challenge measured after 12 hrs by fluorescence microscopy analysis; assay type: functional, cell-based
[12] = system: SH-SY5Y; experiment: Effect on mitochondrial ROS generation in human SH-SY5Y cells assessed as decrease in H2O2-induced mitochondrial ROS level by measuring fluorescence intensity at 5 to 50 uM incubated for 2 hrs by DCFDA probe based fluorescence microscopy analysis; assay type: functional, cell-based
[13] = system: Mus musculus; experiment: Neuroprotective activity in ICR mouse model of D-galactose-induced aging assessed as reduction in degeneration of neuron in hippocampal region at 6 to 30 mg/kg, ig QD measured after 8 weeks by hematoxylin-eosin staining based assay; assay type: functional, organism-based
[14] = system: Mus musculus; experiment: Improvement in learning and spatial memory in ICR mouse model of D-galactose-induced aging assessed as effect on time spent on quadrant at 6 to 30 mg/kg, ig QD measured after 8 weeks by Morris water maze test; assay type: functional, organism-based
[15] = system: Mus musculus; experiment: Neuroprotective activity in ICR mouse model of D-galactose-induced aging assessed as increase in number of […] cells at 6 to 30 mg/kg, ig QD measured after 8 weeks by hematoxylin-eosin staining based assay; assay type: functional, organism-based
[16] = system: Mus musculus; experiment: Antioxidant activity in ICR mouse model of D-galactose-induced aging assessed as increase in superoxide dismutase level in serum at 6 to 30 mg/kg, ig QD measured after 8 weeks; assay type: functional, organism-based

`CC(=O)N[C@@H](CS)C(=O)O` [ACETYLCYSTEINE] gave a viability at 1000 µM [1] of 37.1%.
For `COc1ccc(CNC(=O)O[C@H]2CC[C@@]3(C)C(=CC[C@H]4[C@@H]5C[C@@H]6O[C@]7(CC[C@@H](C)CO7)[C@@H](C)[C@@H]6[C@@]5(C)CC[C@@H]43)C2)cc1`, the viability at 10 µM [2] was 53.5% and the inhibition at 10 µM [3] was 18.6%.
For `C[C@@H]1CC[C@@]2(OC1)O[C@H]1C[C@H]3[C@@H]4CC=C5C[C@@H](OC(=O)NCc6ccc(F)cc6)CC[C@]5(C)[C@H]4CC[C@]3(C)[C@H]1[C@@H]2C`, the viability at 10 µM [2] was 60.1% and the inhibition at 10 µM [3] was 18.6%.
For `C[C@@H]1CC[C@@]2(OC1)O[C@H]1C[C@H]3[C@@H]4CC=C5C[C@@H](OC(=O)N(C)Cc6ccc(Cl)cc6)CC[C@]5(C)[C@H]4CC[C@]3(C)[C@H]1[C@@H]2C`, the viability at 10 µM [2] was 43.9% and the inhibition at 10 µM [3] was 12.5%.
`C[C@@H]1CC[C@@]2(OC1)O[C@H]1C[C@H]3[C@@H]4CC=C5C[C@@H](OC(=O)NCc6ccc(Cl)cc6)CC[C@]5(C)[C@H]4CC[C@]3(C)[C@H]1[C@@H]2C` gave a viability at 10 µM [2] of 56.9% and an inhibition at 10 µM [3] of 7%.
`C[C@@H]1CC[C@@]2(OC1)O[C@H]1C[C@H]3[C@@H]4CC=C5C[C@@H](OC(=O)NCc6ccccc6)CC[C@]5(C)[C@H]4CC[C@]3(C)[C@H]1[C@@H]2C` was tested, and the viability at 10 µM [2] was 75.3%, the inhibition at 10 µM [3] was 22.7% and the Activity [4] was “Active”. The Activity [5] was “Dose-dependent effect”, the Activity [6] was “Dose-dependent effect” and the Activity [7] was “Dose-dependent effect”. The Activity [8] was “Active”, the Activity [9] was “Active” and the Activity [10] was “Active”. The Activity [11] was “Active”, the Activity [12] was “Active” and the Activity [13] was “Active”. The Activity [14] was “Active”, the Activity [15] was “Active” and the Activity [16] was “Active”.
For `C[C@@H]1CC[C@@]2(OC1)O[C@H]1C[C@H]3[C@@H]4CC=C5C[C@@H](OC(=O)NCc6ccncc6)CC[C@]5(C)[C@H]4CC[C@]3(C)[C@H]1[C@@H]2C`, the viability at 10 µM [2] was 42.1% and the inhibition at 10 µM [3] was 11.8%.
`CCCCNC(=O)O[C@H]1CC[C@@]2(C)C(=CC[C@H]3[C@@H]4C[C@@H]5O[C@]6(CC[C@@H](C)CO6)[C@@H](C)[C@@H]5[C@@]4(C)CC[C@@H]32)C1` was tested, and the viability at 10 µM [2] was 47.8% and the inhibition at 10 µM [3] was 11%.
Compound `C[C@@H]1CC[C@@]2(OC1)O[C@H]1C[C@H]3[C@@H]4CC=C5C[C@@H](OC(=O)NC6CCCCC6)CC[C@]5(C)[C@H]4CC[C@]3(C)[C@H]1[C@@H]2C` has a viability at 10 µM [2] of 34.4% and an inhibition at 10 µM [3] of 11.6%.
Work on `C[C@@H]1CC[C@@]2(OC1)O[C@H]1C[C@H]3[C@@H]4CC=C5C[C@@H](OC(=O)N(C)Cc6ccccc6)CC[C@]5(C)[C@H]4CC[C@]3(C)[C@H]1[C@@H]2C` yielded a viability at 10 µM [2] of 43.5% and an inhibition at 10 µM [3] of 20.8%.
`C[C@@H]1CC[C@@]2(OC1)O[C@H]1C[C@H]3[C@@H]4CC=C5C[C@@H](OC(=O)N6CCCC6)CC[C@]5(C)[C@H]4CC[C@]3(C)[C@H]1[C@@H]2C` showed a viability at 10 µM [2] of 63.2% and an inhibition at 10 µM [3] of 16.5%.
